Assay results published in US20210290597A1, “METHOD OF TREATING A CONDITION ASSOCIATED WITH NEURODEGENERATION USING INHIBITORS OF OAT3” (Neuropore Therapies, Inc., priority 2018, published 2021).
pIC50: −log10 of the molar value.

Experiments:
human transporter OAT1 = target: T1, human transporter OAT1 (Homo sapiens, UniProt Q4U2R8); assay: In vitro ion transport assay 1, OAT1-mediated uptake in MDCK-II cells; format: cell-based; conditions: probe substrate 2 μM [3H]-p-aminohippurate
T1 construct: expressed in transfected cells; host or cells: MDCK-II
T1 sequence (Q4U2R8 1-563): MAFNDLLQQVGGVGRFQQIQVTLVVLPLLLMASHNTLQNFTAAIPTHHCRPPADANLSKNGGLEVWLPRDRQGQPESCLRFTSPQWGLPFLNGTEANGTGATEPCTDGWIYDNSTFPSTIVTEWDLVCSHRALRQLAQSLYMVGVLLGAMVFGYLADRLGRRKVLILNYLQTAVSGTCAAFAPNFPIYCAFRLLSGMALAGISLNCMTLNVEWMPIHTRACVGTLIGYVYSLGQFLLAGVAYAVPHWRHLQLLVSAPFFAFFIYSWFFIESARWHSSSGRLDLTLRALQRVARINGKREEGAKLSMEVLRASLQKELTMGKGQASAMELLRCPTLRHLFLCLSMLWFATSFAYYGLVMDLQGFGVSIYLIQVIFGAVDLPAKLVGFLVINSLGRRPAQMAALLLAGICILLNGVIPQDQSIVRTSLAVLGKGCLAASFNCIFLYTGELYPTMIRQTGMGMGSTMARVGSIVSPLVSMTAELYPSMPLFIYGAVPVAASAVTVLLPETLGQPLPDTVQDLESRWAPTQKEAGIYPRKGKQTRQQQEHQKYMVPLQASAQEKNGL
Description: To determine the effect of the ion transporter inhibitors on the uptake activity of solute carrier (SLC) ion transporter proteins such as OAT1 and OAT3, an ion transport assay utilizing a polarized monolayer of MDCK-II cells grown on permeable supports was used. The MDCK-II cells were treated to express the transporter of interest (e.g., OAT3 or OAT 1) or were treated with a control vector. 96-well culture plates with both donor and receiver cells containing a monolayer of MDCK-II cells were maintained at 37° C. in 5% CO2 atmosphere. Radio-labeled para-aminohippurate ([3H]-PAH) was used as a substrate for measuring OAT1 and OAT3 mediated transport, where the transport of the substrate was determined by radiometric detection. OAT1-mediated transport was assayed using 2 μM of [3H]-PAH; OAT3-mediated transport was assayed using 10 μM of [3H]-PAH. The probe substrate for OAT1 was 2 μM [3H]-p-aminohippurate. The probe substrate for OAT3 was 10 μM [3H]p-aminohippurate. The reference inhibitor for both assays was 100 μM probenecid. Following pre incubation of the transfected MDCK-II cells in HBSS, [3H]-PAH was added at the concentrations described above. Wells were then treated with either reference inhibitor probeneic acid or with the test compound. Cells transfected with empty vector served as an additional control. […]

[1] = tested on: microtubule-associated protein 1A/1B-light chain 3 (LC3); assay: LC3 immunolabeling, L61 ASYN transgenic mice, 1 month study; format: in vivo; conditions: 1, 5 or 10 mg/kg per day i.p.
Description: Multiple in vivo administration studies of Compound 1 were carried out in the Line 61 (L61) mThy1-alpha-synuclein transgenic mouse model of Parkinson's disease (PD). The mThy1-alpha-synuclein transgenic mouse model overexpresses wild-type human ASYN under the Thy-1 promoter (commonly referred to as Line 61 transgenic mice; Rockenstein et al., 2002). This transgenic mouse develops extensive accumulation of alpha-synuclein (ASYN) in areas relevant to PD (Rockenstein et al., 2002; Chesselet et al., 2012; Games et al., 2013), neurodegeneration including dopaminergic neurodegeneration, reduced dopamine (DA) and TH loss in the striatum (Masliah et al., 2000; Lam et al., 2011), and motor deficits (Fleming et al., 2004). […]
Alpha-synuclein (ASYN) is a neuronal protein whose dysregulation has been implicated in the pathogenesis of PD. The effects of Compound 1 on alpha-synuclein aggregation were assessed in both L61 ASYN transgenic and non-transgenic mice in a 1 month administration study. […] At the end of one month, the mice were sacrificed, and immunohistochemical (IHC) detection of total alpha-synuclein deposits, insoluble alpha-synuclein deposits (PK+resistant), microtubule-associated protein 1A/1B-light chain 3 (LC3), and monomeric alpha-synuclein levels were assessed in the harvested brain tissues.

[2] = tested on: Translocator Protein (18 kDa) (TSPO); assay: TSPO immunofluorescence, L41 APP transgenic mice; format: in vivo; conditions: 5 mg/kg daily i.p.
Description: Neuroinflammation is associated with increased expression of the 18-kDa translocator protein (TSPO), which is present on the mitochondria of activated microglia, astroglia and macrophages (Crawshaw and Robertson 2017). The effects of Compound 1 on TSPO expression were assessed in both L41 APP transgenic and non-transgenic mice in a 1 month administration study. L41 APP transgenic mice (36 total mice, n=8-11 mice per treatment group) were injected (i.p.) daily with 5 mg/kg of Compound 1 or a vehicle control (5% DMSO+20% Cremphor EL+0.9% normal saline) for […]. Non-transgenic mice (18 total mice, n=8-11 mice per treatment group) were used as a control and were injected daily (i.p.) with 10 mg/kg of Compound 1 (data not shown) or a vehicle control (5% DMSO+20% Cremphor EL+0.9% normal saline) for 1 month. After 30 days, the mice were sacrificed, and immunofluoresence (IF) detection of TSPO were assessed in the harvested brain tissues.
The harvested brain tissues were drop fixed using 4% PFA and sectioned on a vibratome, and representative sections corresponding to the neuropil of cortex were assessed for TSPO with standard immunofluorescence (IF) staining.

pIC50 (human transporter OAT1): 4.89
Compound: O=S(=O)(c1ccc(-n2cn[nH]c2=S)cc1)c1ccc(Cl)c(C(F)(F)F)c1 [Compound 1, 4-(4-((4-chloro-3-(trifluoromethyl)phenyl)sulfonyl)phenyl)-2,4-dihydro-3H-1,2,4-triazole-3-thione]
levels of LC3 immunolabeling in cortex and striatum [1]: increased
cortical TSPO level vs vehicle-treated Line 41 mice [2]: reduces the TSPO level in a statistically significant manner
